Test results published in US12291607B2, “Polymer material and method for producing same” (Osaka University, priority 2019, dated 2025).

Experiment: Solubility of host (Ac-CDAA) and guest (ADAA) monomers in third polymerizable monomers
Assay type: physicochemical
Description: The phrase “the host group-containing polymerizable monomer and the guest group-containing polymerizable monomer are dissolved in the third polymerizable monomer” means that the mixture of the host group-containing polymerizable monomer and the guest group-containing polymerizable monomer in a total amount of 1 part by weight or more is dissolved per 100 parts by weight of the third polymerizable monomer at a temperature of 20° C. It is preferable that the mixture of the host group-containing polymerizable monomer and the guest group-containing polymerizable monomer in a total amount of 1 part by weight or more, and particularly preferably 10 parts by weight or more, is dissolved per 100 parts by weight of the third polymerizable monomer at a temperature of 20° C.
(§1) The solubility of Ac-CDAA (host group-containing polymerizable monomer) in the following various monomers (third polymerizable monomers) was as follows: • less than 1 g for 100 g of 2EHA (20° C.) • less than 1 g for 100 g of OctA (octyl acrylate) (20° C.) • 10 g or more for 100 g of 2MEA (20° C.) • 10 g or more for 100 g of 4HBA (20° C.) • 10 g or more for 100 g of DMAA (20° C.)
as §1, with “Further, the” for “The”, “ADAA (guest” for “Ac-CDAA (host”, “OctA” for “OctA (octyl acrylate)”

solubility in 2EHA (for 100 g of 2EHA (20° C.)): less than 1 g
solubility in 2MEA (for 100 g of 2MEA (20° C.)): ≥ 10 g
solubility in 4HBA (for 100 g of 4HBA (20° C.)): ≥ 10 g
solubility in DMAA (for 100 g of DMAA (20° C.)): ≥ 10 g
solubility in OctA (for 100 g of OctA (octyl acrylate) (20° C.)): less than 1 g
Structure (SMILES): C=CC(=O)NC12CC3CC(CC(C3)C1)C2 [ADAA, N-(1-adamantyl) acrylamide]
